The text below walks through data of US11865099B2, “Product based on iron bis-glycinate chelate and alginic acid and/or water-soluble salts thereof, formulations thereof, and pharmaceutical uses thereof” (LABORATORI BALDACCI S.P.A., priority 2015, dated 2024).

SMILES strings stand for the structures.

The nature of the data set: Iron dissolution test, rotating basket apparatus, sample in dialysis membrane, 0.01 N HCl. Format: physicochemical. The settings on record: for percentage of dissolved iron: after 120 minutes; for dissolution rate: sample in 1.0 ml 0.01 N HCl (method A) in dialysis membrane, linear trend.
The mark [1] stands for this setting: 1.0 ml 0.01 N HCl, dialysis membrane.

Procedure: The dissolution test was performed with rotating basket apparatus according to Eur. Pharmacopoeia 9th Edition choosing hydrochloric acid to simulate the gastric fluid.
A first series of assays were performed placing the product into a dialysis membrane with adequate volumes of hydrochloric acid (1.0 or 2.0 ml). In this case, the dissolution medium was 0.01 N (pH=2) hydrochloric acid, as the dialysis membrane is not compatible with pH values lower than 2.
Experimental method: the dialysis membrane (Spectrum Labs Spectra/Por 3; MWCO; 3500 kDa) was hydrated for one night (16 hours) in deionized water before the test. […] The bags were closed and placed into the basket of the dissolution apparatus.
Then, the basket was immersed in 100 ml of 0.01 N HCl and the dissolution test was carried out at a temperature of 37° C. with a rotation speed of 75 rpm/min, withdrawing, at appropriate times, samples of dissolution phase that were immediately replaced with fresh solvent in order to maintain constant sink condition.
Experimental method: after hydration of the dialysis membrane for one night in deionized water, three exactly weighted samples of Feralgina® having different weights (range 20-30 mg) were dissolved with 1.0 ml (method A) or with 2.0 ml (method B) of hydrochloric acid (0.01 N) and the resulting solutions were placed into the hydrated dialysis membrane. The bags were perfectly closed and placed into the basket of the dissolution apparatus. […] The basket was immersed in 100 ml of 0.01 N HCl at a temperature of 37° C., with a rotation speed of 75 rpm/min, collecting samples of dissolution medium at appropriate times immediately replaced with fresh solvent in order to keep the dissolution constant (sink condition).
The dissolution tests of TecnoFERPlus were performed with two different experimental methods that involved, in one case, the use of the dialysis membrane and experimental conditions similarly to those followed for iron sulfate and iron bisglycinate with different volumes of hydrochloric acid 0.01 N, and in the second one, the use of TecnoFERPlus (capsule) without the dialysis membrane.

Consider `NCC(=O)[O][Fe][O]C(=O)CN` [Iron bis-glycinate chelate], for which the dissolution rate came out at 0.378 min⁻¹. The “amount of iron dissolved in the medium, of the total content” value (after 15 minutes, 1.0 ml 0.01 N HCl, dialysis membrane) is “about 20%”. Moreover, the “percentage of dissolved iron” value under setting [1] is given as “about 60%”.

`O=S(=O)([O-])[O-].[Fe+2]` [iron sulphate] yielded a dissolution rate of 0.439 min⁻¹. Moreover, the “percentage of dissolved iron” value under setting [1] is on record as “about 61%”.
